From PubChem BioAssay (NCI)
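In this assay, cells in 96-well plates receive the compound at five concentrations for 48 hours. Endpoints are linearly interpolated between the surrounding concentrations. The concentration for full growth arrest is given as TGI.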 Where a SMILES comes first, the peptide text is derived from it. Bridges are numbered along the chain shown (N, C = ends). [ ]: non-standard residue; d: D form. The star is where a group is joined. Cbz = O=C(OCc1ccccc1)*; Aib = CC(C)(N)C(=O)O; OBn = c1ccc(CO*)cc1; βAla = NCCC(=O)O

How the values were obtained:
Assay in all cases: NCI anticancer screen, dose series, 48 h
786-0 renal = test system: 786-0 renal
A549 NSCLC = test system: A549 NSCLC
ACHN renal = test system: ACHN renal
EKVX NSCLC = test system: EKVX NSCLC
HCT-116 colon = test system: HCT-116 colon
HS 578T breast = test system: HS 578T breast
K-562 leukemia = test system: K-562 leukemia
MDA-MB-435 = test system: MDA-MB-435
MDA-N = test system: MDA-N
NCI-H226 lung = test system: NCI-H226 lung
NCI-H522 lung = test system: NCI-H522 lung
NCI/ADR-RES ovarian = test system: NCI/ADR-RES ovarian
OVCAR-5 ovarian = test system: OVCAR-5 ovarian
SK-MEL-2 melanoma = test system: SK-MEL-2 melanoma
SK-OV-3 ovarian = test system: SK-OV-3 ovarian
TK-10 renal = test system: TK-10 renal
UACC-62 melanoma = test system: UACC-62 melanoma
UO-31 renal = test system: UO-31 renal
RPMI-8226 leukemia = test system: RPMI-8226 leukemia

Row | Structure (SMILES) | TGI (786-0 renal) | TGI (A549 NSCLC) | TGI (ACHN renal) | TGI (EKVX NSCLC) | TGI (HCT-116 colon) | TGI (HS 578T breast) | TGI (K-562 leukemia) | TGI (MDA-MB-435) | TGI (MDA-N) | TGI (NCI-H226 lung) | TGI (NCI-H522 lung) | TGI (NCI/ADR-RES ovarian) | TGI (OVCAR-5 ovarian) | TGI (SK-MEL-2 melanoma) | TGI (SK-OV-3 ovarian) | TGI (TK-10 renal) | TGI (UACC-62 melanoma) | TGI (UO-31 renal) | TGI (RPMI-8226 leukemia)
1 | C1=C2C3=[N+](CCCC3)CC2Cc2ccsc21 (stereo not drawn) | > 100 µM | > 100 µM | > 100 µM | > 100 µM | > 100 µM | > 100 µM | > 100 µM | > 100 µM | > 100 µM | > 100 µM | > 100 µM | > 100 µM | > 100 µM | > 100 µM | > 100 µM | > 100 µM | > 100 µM | > 100 µM | 
2 | CC(=O)OCC1OC(N2C(c3ccccc3)=CC(c3ccccc3)C(C#N)=C2S)C(OC(C)=O)C(OC(C)=O)C1OC(C)=O (stereo not drawn) | 9.85 µM | > 46.4 µM | 27 µM |  | > 65.6 µM | 29.8 µM | > 100 µM | > 40.2 µM | 15.1 µM | > 100 µM | 28.6 µM | > 100 µM | > 100 µM | 16.8 µM |  | 50.1 µM | 7.67 µM | 51 µM | > 100 µM
3 | O=C(Nc1ccc2nc(-c3ccccc3)cn2c1)Oc1ccccc1 | > 100 µM | > 100 µM | > 100 µM | > 100 µM | > 100 µM | > 100 µM | > 100 µM | 47.5 µM | 41.9 µM | > 100 µM | 90.2 µM | > 100 µM | > 100 µM | > 100 µM | > 100 µM | > 100 µM | > 100 µM | > 100 µM | 
4 | Clc1cccc(Cl)c1C1SCC2=Nc3ccccc3CN21 (stereo not drawn) | 32.4 µM | 56.5 µM |  | 73.6 µM | 25.7 µM | 62.2 µM | > 100 µM | > 100 µM | > 100 µM |  |  | 40 µM | > 100 µM |  | 50.6 µM | > 100 µM | > 100 µM | 43.2 µM | > 100 µM
5 | CCOC(=O)N/N=C(/N)Cc1ccccc1 | > 100 µM | > 100 µM | > 100 µM | > 100 µM | > 100 µM | > 100 µM | > 100 µM | > 100 µM | > 100 µM |  | > 100 µM | > 100 µM | > 100 µM | > 100 µM | > 100 µM | > 100 µM | > 100 µM | > 100 µM | 
6 | CSc1ccc(C2C(Cl)C(=O)N2NC(=O)c2c(Cl)c(Cl)c(Cl)c(Cl)c2-c2nc3ccccc3[nH]2)cc1 (stereo not drawn) | 76.8 µM | > 100 µM | 71.4 µM | 37.9 µM | 33.7 µM | > 100 µM | > 100 µM | 37 µM | 87.9 µM | 38.5 µM | 4.87 µM | > 100 µM | 53.4 µM | > 100 µM | 93.4 µM |  | > 100 µM | > 100 µM | 
7 | Cc1[nH]c(=O)[nH]c(=S)c1C(=O)NC(C)(CO)CO | > 100 µM | > 100 µM | > 100 µM | > 100 µM | > 100 µM | > 100 µM | > 100 µM | > 100 µM | > 100 µM | > 100 µM | > 100 µM | > 100 µM | > 100 µM | > 100 µM | > 100 µM | > 100 µM | > 100 µM | > 100 µM | 
8 | c1ccc2c(c1)nc1n2CNCC1 | > 100 µM | > 100 µM | > 100 µM | > 100 µM | > 100 µM | > 100 µM |  | > 100 µM | > 100 µM | > 100 µM | > 100 µM | > 100 µM | > 100 µM | > 100 µM | > 100 µM | > 100 µM | > 100 µM | > 100 µM | > 100 µM
9 | O=C1SCC(O)=C1/C=N/Nc1nc2ccccc2o1 | > 100 µM | 95.4 µM | > 100 µM | 96.1 µM | 50 µM | > 100 µM |  | > 100 µM | > 100 µM | 76.6 µM |  | 43.3 µM | > 100 µM | > 100 µM | 82.8 µM | 92.8 µM | 46.1 µM |  | 
10 | CCOC(=O)NC(Nc1ccc(S(=O)(=O)Nc2ncccn2)cc1)(C(=O)OCC)C(F)(F)F (stereo not drawn) | > 100 µM | > 100 µM | > 100 µM | > 100 µM | > 100 µM | > 100 µM | > 100 µM | > 100 µM | > 100 µM | > 100 µM | > 100 µM | > 100 µM | > 100 µM | > 100 µM | > 100 µM |  | > 100 µM | > 100 µM | > 100 µM
11 | O=C(CCc1ccc(O)cc1)NCCc1ccc(O)cc1 | > 100 µM | > 100 µM | > 100 µM | > 100 µM | > 100 µM | > 100 µM | > 100 µM | > 100 µM | > 100 µM | > 100 µM | > 100 µM | > 100 µM | > 100 µM | > 100 µM | > 100 µM | > 100 µM | > 100 µM | > 100 µM | 
12 | S=C(/N=c1/sc(Nc2ccccc2)nc2sc3c(c12)CCCC3)Nc1ccccc1 | > 62.5 µM |  | > 62.5 µM | > 62.5 µM | > 62.5 µM | > 62.5 µM | > 62.5 µM | > 62.5 µM | > 62.5 µM | > 62.5 µM | > 62.5 µM |  | > 62.5 µM | > 62.5 µM | > 62.5 µM | > 62.5 µM | > 62.5 µM | > 62.5 µM | > 62.5 µM
13 | CC1(C)NC(=O)C(NC(=O)C(CC(=O)OCc2ccccc2)NC(=O)OCc2ccccc2)CCCCNC(=O)CCNC1=O (stereo not drawn) (Cbz-D(OBn)K[Aib][βAla]; lactam 2-C; configuration not given here) | > 100 µM | > 100 µM | > 100 µM | > 100 µM | > 100 µM | > 100 µM | > 100 µM | > 100 µM | > 100 µM | > 100 µM | > 100 µM | > 100 µM | > 100 µM |  | > 100 µM | > 100 µM | > 100 µM | > 100 µM | > 100 µM
14 | O=[N+]([O-])C(C(Cl)=C(Cl)Cl)=C(N1CCOCC1)N1CCOCC1 | > 100 µM | > 100 µM | > 100 µM | > 100 µM | > 100 µM | > 100 µM | > 100 µM | > 100 µM | > 100 µM | > 100 µM | > 100 µM |  | > 100 µM | > 100 µM | > 100 µM | > 100 µM | > 100 µM | > 100 µM | > 100 µM
15 | CC/C(=N/O)c1ccc(Br)s1 | > 100 µM | > 100 µM | > 100 µM | > 100 µM | > 100 µM | > 100 µM | > 100 µM | > 100 µM | > 100 µM | > 100 µM | > 100 µM | > 100 µM | > 100 µM | > 100 µM | > 100 µM | > 100 µM | > 100 µM | > 100 µM | 
16 | CC1=C2C3=C(C)C(=O)C(C)(C)CC[C@@]3(C)[C@]2(C)CCC(C)(C)C1=O | > 100 µM | > 100 µM | > 100 µM | > 100 µM | > 100 µM | > 100 µM | > 100 µM | > 100 µM | > 100 µM | > 100 µM | > 100 µM | > 100 µM | > 100 µM |  | > 100 µM | > 100 µM | > 100 µM | > 100 µM | > 100 µM
17 | CC(C(=O)N1c2ccccc2Sc2ccccc21)N1c2ccccc2Sc2ccccc21 (stereo not drawn) | > 100 µM | > 100 µM | > 100 µM | > 100 µM | > 100 µM | > 100 µM | > 100 µM | > 100 µM | > 100 µM | > 100 µM |  | > 100 µM | > 100 µM | > 100 µM | > 100 µM | > 100 µM | > 100 µM | > 100 µM | > 100 µM
18 | Nc1ccc(C(=O)Nn2c(-c3ccccc3)nc3ccccc3c2=O)cc1 | > 100 µM | > 100 µM | > 100 µM | > 100 µM | > 100 µM | > 100 µM | > 100 µM | > 100 µM | > 100 µM | > 100 µM | > 100 µM |  | > 100 µM |  | > 100 µM | > 100 µM | > 100 µM | > 100 µM | > 100 µM
19 | NC(N)=N/N=C/c1c(Cl)nc2sccn12 | 32.7 µM | 93.8 µM | 33.4 µM | > 100 µM | 31.7 µM | 84.8 µM | 87.4 µM | > 100 µM | > 100 µM | 66.9 µM | 84 µM | > 100 µM | 80.9 µM |  | > 100 µM | > 100 µM | > 100 µM | > 100 µM | 53.1 µM
20 | Oc1cc(O)c2c(c1)O[C@H](c1cc(O)c(O)c(O)c1)[C@H](O)C2 | 33.5 µM | 76.7 µM | 48.9 µM |  | 40.3 µM | > 100 µM | 48.4 µM | 25.4 µM | 40.9 µM | > 100 µM | 38.1 µM | 63.8 µM | 32 µM | 28.9 µM | 56.7 µM |  |  | 39.4 µM | 31.7 µM
21 | O=C(CC(=O)N(C(=O)c1ccccc1)c1ccc(Cl)cc1)N/N=C\c1cc(N=Nc2ccccc2Cl)ccc1O | > 100 µM | > 100 µM | > 100 µM | > 100 µM | > 100 µM | 61.6 µM | 36 µM | > 100 µM | > 100 µM | > 100 µM |  |  | > 100 µM |  | > 100 µM | > 100 µM | > 100 µM | > 100 µM | > 100 µM
